The test system of series [1] is HEL. Nature of the series: Cytotoxicity against HEL cells assessed as cell growth after 3 days. It is filed as functional, Homo sapiens. The note with it: Homo sapiens, HEL, 72 h; read-out: CC50.
Series [2] relates to Coxsackievirus B4. It is filed as functional, organism-based. The note with it: Enterovirus B, HeLa.
Series [3] has as its system Vesicular stomatitis virus. Nature of the series: microbe, parasite or virus in culture. The conditions noted are these: HEL.
Series [4] has as its system Human respirovirus 3. Nature of the series: Antiviral activity against Parainfluenza 3 in Vero cells reduction of virus-induced cytopathogenicity after 4 days. Format: functional, organism-based. The note with it: Human respirovirus 3, Vero, 96 h. On the technique in general: Protection from cytopathic effect is a common read-out in antiviral testing.
Series [5] has as its system Respiratory syncytial virus. It is filed as functional, organism-based. The conditions noted are these: human respiratory syncytial virus, HeLa.
Series [6] concerns Sindbis virus. Kind of series: Antiviral activity against Sindbis virus in Vero cells reduction of virus-induced cytopathogenicity after 4 days. It is filed as functional, organism-based. The note with it: 96 h.
Series [7] concerns Human alphaherpesvirus 3. It is filed as functional, organism-based. The note with it: Human alphaherpesvirus 3, OKA, HEL.
In series [8] the test system is Moloney murine sarcoma virus. The note with it: C3H.
Series [9] concerns Human betaherpesvirus 5. Format: functional, organism-based. The conditions noted are these: Human betaherpesvirus 5, AD169, HEL.
The subject of series [10] is HEL. Nature of the series: Cytotoxicity against HEL cells assessed as alteration in morphology after 3 days. It is filed as functional. The note with it: Homo sapiens, 72 h.
Series [11] concerns Human betaherpesvirus 5. Format: functional, organism-based. The conditions noted are these: Human betaherpesvirus 5, Davis, HEL.
The test system of series [12] is Mammalian orthoreovirus 1. Kind of series: Antiviral activity against Reovirus 1 in Vero cells reduction of virus-induced cytopathogenicity after 4 days. The note with it: Mammalian orthoreovirus 1, Vero, 96 h. Format: functional, organism-based.
Series [13] relates to Human alphaherpesvirus 2. It is filed as functional, organism-based. The note with it: Human alphaherpesvirus 2, G, HEL.
Series [14] is described as follows: Cytotoxicity against Vero cells assessed as alteration in morphology after 3 days. Format: cell-based, Chlorocebus sabaeus. The conditions noted are these: chlorocebus sabaeus, Vero cells.
In series [15] the test system is Coxsackievirus B4. Format: functional, organism-based. The conditions noted are these: Enterovirus B, Vero.
The subject of series [16] is Human alphaherpesvirus 2. Format: functional, organism-based. The note with it: Human alphaherpesvirus 2, Lyons, HEL.
Series [17] has as its system Human alphaherpesvirus 3. Format: functional, organism-based. The note with it: Human alphaherpesvirus 3, 07-1, HEL.
Series [18] has as its system MOLT-3. Kind of series: Cytotoxicity against MOLT3 cells assessed as alteration in morphology after 3 days. Format: functional, Homo sapiens. The note with it: Homo sapiens, MOLT-3, 72 h; read-out: MCC.
The nature of series [19]: Cytotoxicity against HSB2 cells assessed as alteration in morphology after 3 days. Format: functional, Homo sapiens, CCRF-HSB-2. The note with it: Homo sapiens, CCRF-HSB-2, 72 h; read-out: MCC.
Series [20] relates to Punta Toro virus. Kind of series: Antiviral activity against Punta Toro virus in Vero cells reduction of virus-induced cytopathogenicity after 4 days. Format: functional, organism-based. The conditions noted are these: 96 h.
Series [21] can be described thus: Cytotoxicity against C3H cells assessed as alteration in morphology after 3 days. It is filed as cell-based, Mus musculus. The note with it: mouse, C3H cells.
The test system of series [22] is Vesicular stomatitis virus. Kind of series: microbe, parasite or virus in culture. The note with it: HeLa.
The subject of series [23] is HeLa. Kind of series: Cytotoxicity against HeLa cells assessed as alteration in morphology after 3 days. Format: functional, cell-based. The conditions noted are these: Homo sapiens, 72 h.
Series [24] has as its system Human immunodeficiency virus 1. It is filed as functional, organism-based. The note with it: Human immunodeficiency virus 1, 3B, CCRF-CEM, 96 h.
Series [25] has as its system Human immunodeficiency virus 2. Format: functional, organism-based. The note with it: Human immunodeficiency virus 2, ROD, CCRF-CEM, 96 h.
Series [26] concerns Human adenovirus 2. Format: functional, organism-based. The conditions noted are these: Human mastadenovirus C, HEL.
The subject of series [27] is CCRF-CEM. Kind of series: Cytotoxicity against CEM cells assessed as cell growth after 3 days. It is filed as functional. The conditions noted are these: Homo sapiens, 72 h.

The source of these data is ChEMBL document CHEMBL1138246, “Ester prodrugs of cyclic 1-(S)-[3-hydroxy-2-(phosphonomethoxy)propyl]-5-azacytosine: synthesis and antiviral activity” (J Med Chem, 2007).

≈ marks a conversion by molar mass, not a printed value.

What is called CC50 is the concentration giving 50% cytotoxicity. One may read the EC50 as the concentration at which the effect is half-maximal. Higher therefore signals weaker potency.

With `Nc1ncn(C[C@H]2COP(=O)(O)CO2)c(=O)n1`, the 50% cytotoxic concentration (CC50) in [1] was > 100 µg/mL. Moreover, the EC50 in series [2] is > 200 µg/mL; in series [3], > 200 µg/mL; in series [4], > 200 µg/mL; in [5], > 200 µg/mL; in [6], > 200 µg/mL; in series [7], 0.12 µg/mL (≈ 0.458 µM). The EC50 is > 20 µg/mL in series [8]; 0.07 µg/mL (≈ 0.267 µM) in series [9]; 0.06 µg/mL (≈ 0.229 µM) in series [11]; > 200 µg/mL in [12]; 0.61 µg/mL (≈ 2.33 µM) in series [13]; > 200 µg/mL in [15]. Besides, the EC50 is 0.48 µg/mL (≈ 1.83 µM) in series [16], 0.04 µg/mL (≈ 0.153 µM) in [17], > 200 µg/mL in [20] and > 200 µg/mL in [22]. For the same compound, the MCC in series [10] is > 100 µg/mL; in series [18], 33 µg/mL; in [19], 200 µg/mL; in series [23], > 200 µg/mL. The MCC at 72 h in series [14] is > 200 µg/mL; in series [21] it was 100 µg/mL.
Regarding `Nc1ccn(C[C@H]2COP(=O)(O)CO2)c(=O)n1` [CYCLIC CIDOFOVIR], in series [1], the CC50 is ≥ 76 µg/mL. Moreover, the concentration for a half-maximal effect (EC50) is > 200 µg/mL in series [2]; > 200 µg/mL in [3]; > 200 µg/mL in series [4]; > 200 µg/mL in [5]; > 200 µg/mL in series [6]; 0.12 µg/mL (≈ 0.459 µM) in series [7]. Besides, the EC50 in [8] was > 20 µg/mL; in series [9], 0.21 µg/mL (≈ 0.804 µM); in series [11] it was 0.22 µg/mL (≈ 0.842 µM); in series [12], > 200 µg/mL; in series [24] it was > 20 µg/mL; in [13] it was 0.76 µg/mL (≈ 2.91 µM). The EC50 in series [25] is > 20 µg/mL; in [15], > 200 µg/mL; in [16], 0.45 µg/mL (≈ 1.72 µM); in [17], 0.04 µg/mL (≈ 0.153 µM); in series [20] it was > 200 µg/mL; in [22] it was > 200 µg/mL. Also, the MCC is > 100 µg/mL in series [10] and > 200 µg/mL in series [23]. The MCC at 72 h in [14] is > 200 µg/mL; in series [21], 100 µg/mL.
As to `CC(C)(C)C(=O)OCOP1(=O)CO[C@@H](Cn2cnc(N)nc2=O)CO1` (stereo partly specified), the cytotoxic concentration (CC50) in series [1] was determined as 14 µg/mL (≈ 37.2 µM); in series [27], 18 µg/mL (≈ 47.8 µM). Also, the EC50 was > 20 µg/mL in [2]; > 20 µg/mL in series [3]; > 100 µg/mL in series [4]; 0.069 µg/mL (≈ 0.183 µM) in [26]; > 20 µg/mL in series [5]; > 100 µg/mL in series [6]. In addition, the EC50 in series [7] is 0.11 µg/mL (≈ 0.292 µM); in series [8], > 20 µg/mL; in series [9], 0.061 µg/mL (≈ 0.162 µM); in series [11], 0.067 µg/mL (≈ 0.178 µM); in [12] it was > 100 µg/mL; in series [24], > 20 µg/mL. Also, the EC50 is 0.32 µg/mL (≈ 0.85 µM) in [13]; > 20 µg/mL in series [25]; > 100 µg/mL in series [15]; 0.24 µg/mL (≈ 0.638 µM) in [16]; 0.02 µg/mL (≈ 0.0531 µM) in [17]; > 100 µg/mL in series [20]. The concentration for a half-maximal effect (EC50) in series [22] is > 20 µg/mL. The MCC in series [10] is > 40 µg/mL; in series [18], ≥ 4 µg/mL; in series [19], 4 µg/mL; in series [23], 100 µg/mL. Also, the MCC at 72 h is > 100 µg/mL in series [14] and 100 µg/mL in series [21].
On to `Nc1nc2c(ncn2COC(CO)CO)c(=O)[nH]1` [GANCICLOVIR], for which the half-maximal cytotoxic concentration (CC50) in series [1] turned out to be 122 µg/mL (≈ 478 µM). The EC50 in series [9] stood at 1.68 µg/mL (≈ 6.58 µM); in series [11], 1.29 µg/mL (≈ 5.05 µM); in series [13], 0.0036 µg/mL (≈ 0.0141 µM); in series [16] it was 0.0014 µg/mL (≈ 0.00549 µM). Further, the MCC in [10] was > 100 µg/mL.
As to `NC(=O)c1ncn([C@@H]2O[C@H](CO)[C@@H](O)[C@H]2O)n1` [RIBAVIRIN], the EC50 is 90 µg/mL (≈ 369 µM) in series [2]; 120 µg/mL (≈ 491 µM) in [3]; 120 µg/mL (≈ 491 µM) in [4]; 24 µg/mL (≈ 98.3 µM) in series [5]; 120 µg/mL (≈ 491 µM) in [6]; 200 µg/mL (≈ 819 µM) in series [12]. In addition, the EC50 in series [15] was > 200 µg/mL; in [20] it was 40 µg/mL (≈ 164 µM); in series [22], 24 µg/mL (≈ 98.3 µM). Further, the MCC in [10] and in [23] was > 200 µg/mL in each case. The MCC at 72 h in series [14] was > 200 µg/mL.
